Tests used:
[1] = tested on: E. coli cells; test: Dark toxicity of porphyrins on bacteria cells; format: cell-based, Escherichia coli; settings: 10 μM, 5 min incubation in the dark
Experimental: (§1) The toxic effects of T4MPyP and its analogues on E. coli and S. aureus cells were evaluated by measuring the extent of growth inhibition (bacteriostatic effect) and reduction of survival (cytocidal/bacteriocidal effect) following treatment with porphyrin in the dark or upon light exposure.
(§2) In all cases, 5 ml of the cell suspension (10^8-10^9 cells/ml) were incubated for 5 min in the dark at room temperature with the selected photosensitizer at concentrations ranging between 0.5 and 10 μM. After dark-incubation, some of the cell samples were irradiated with white light (150 mW/cm^2). During irradiation, (up to 30 min) the cells were kept at 37° C. and magnetically stirred. The treated and untreated control cells were diluted with BHI and maintained at 37° C. while the absorbance of the suspension at 650 nm was monitored at predetermined time periods for determining growth curves. The percent of growth inhibition in the treated cells was calculated by the following equation: […]
(§3) where AX, and AC are the absorbances measured after 3 h incubation, respectively, for the treated and control cell suspensions, respectively, while A0 represents the initial absorbance and the AC is that of the control cell suspension after 5 hours incubation. Cell survival was determined by plating serially diluted aliquots of treated and untreated cells on brain heart agar and counting the number of colonies after 18-24 h incubation at 37° C.

[2] = tested on: S. aureus cells; test: Growth inhibition after 5 min incubation with porphyrin and white-light irradiation; format: cell-based, Staphylococcus aureus
Experimental: (§4) The abilities of various examples of the porphyrins of the instant invention to kill Gram-negative and Gram-positive bacteria were tested against that of T4MPyP. Each of the compounds was incubated with E. coli and S. aureus cells for 5 minutes, following which the samples were irradiated with white light for varying lengths of time.
(§5) Escherichia coli strain O4 (wild type), and methycillin-resistant Staphylococcus aureus, strain MRSA 110, were grown aerobically at 37° C. in brain heart infusion broth (BHI, Difco, Detroit, Mich.). The cells in the stationary phase of growth were harvested by centrifugation (2,000 g for 15 min) of the broth cultures, washed twice with 10 mM PBS at pH=7.4, containing 2.7 mM KCl and 0.14 M NaCl, and suspended in PBS at a density of 10^8-10^9 cells/ml (absorbance of about 0.7 at 650 nm). Aliquots of 5 ml of the cell suspension were incubated with 1 μM porphyrins for 5 min in the dark at room temperature. After incubation the suspensions were centrifuged and the cell pellets were collected immediately or washed with PBS and centrifuged again for one or three times.
as §1
[…] After dark-incubation, some of the cell samples were irradiated with white light (150 mW/cm^2). During irradiation, (up to 30 min) the cells were kept at 37° C. and magnetically stirred. The treated and untreated control cells were diluted with BHI and maintained at 37° C. while the absorbance of the suspension at 650 nm was monitored at predetermined time periods for determining growth curves. The percent of growth inhibition in the treated cells was calculated by the following equation:
as §3

[3] = Triplet state properties by laser flash photolysis; format: physicochemical; settings: phosphate-buffered solution; for φT, triplet quantum yield: ε920 estimated by total depletion method
Experimental: Laser flash photolysis experiments were carried out by use of the setup previously described in Gomer, et al., with excitation wavelengths of 355 and 420 nm. Gorner, et al., Photoinduced electron transfer between styrylanthracenes and electron donors and acceptors in acetonitrile, J. Chem. Soc. Faraday Trans., vol. 88, pp. 29-34 (1992).
The transient spectra of the porphyrins in buffer solutions were recorded upon laser flash photolysis excitation at 355 and 420 nm. […] The decay (growth) of the signal (bleaching) occurred according to first-order kinetics and led to a complete recovery of the ground state with a lifetime of 91 μs. […] This also allowed the triplet quantum yield (φT) to be determined (see Table 3), after calibration of the experimental setup by use of an optically-matched solution of benzophenone in acetonitrile.

[4] = tested on: E. coli cells; test: Growth inhibition after 5 min incubation with porphyrin and white-light irradiation; format: cell-based, Escherichia coli; settings: for concentration photoinducing significant bacteriostatic and bactericidal action: both cell strains (S. aureus and E. coli)
Experimental: as §4, §5, §1, §2, §3

[5] = tested on: S. aureus cells; test: Binding of porphyrins to bacteria cells; format: cell-based, Staphylococcus aureus; settings: 1 μM, 5 min
Experimental: as §5
The amount of cell-bound porphyrins was determined in the pellets after resuspension and overnight-incubation in 2% aqueous SDS. The porphyrin concentration in the cell lysate was determined by measuring the intensity of red fluorescence (600-750 nm) emitted after excitation at 420 nm and interpolating the data on a calibration plot obtained with known porphyrin concentrations. The protein content of the cell samples was determined by the method of Lowry (Lowry et al., J. Biol. Chem., 193:265-275 (1951)) and was used to express the amount of porphyrin bound to the cells as nanomoles of porphyrin/mg of protein.

[6] = Photosensitized photooxidation of NATA; settings: 10 μM NATA; for ΦSDS × 10^3, quantum yield for photo-oxidation of NATA: aqueous 2% SDS; for ΦPBS × 10^3, quantum yield for photo-oxidation of NATA: phosphate buffered solution
Experimental: The photosensitizing activity of the various porphyrins was tested by measuring their efficiency in promoting the photooxidation of N-acetyl-L-tryptophanamide (NATA, Aldrich Chem. Co.) as a model biological substrate. Toward this aim, 10 μM NATA in PBS or in water containing 2% SDS was irradiated in the presence of 5 μM porphyrin. The irradiations were performed with 515±10 nm-light isolated by means of an interference filter (Balzers, Liechtenstein), while the solution (2 ml) was magnetically stirred in a quartz cuvette of 1-cm optical path and kept at 25° C. The photosensitized modification of NATA was followed by measuring the decrease in the intensity of its fluorescence emission spectrum (300-450 nm) upon excitation with 290 nm-light at various irradiation times. Plots of in F°/F (where F° and F represent the fluorescence intensity at time 0 and t, respectively) vs. the irradiation time allowed the first-order rate constants of the photo-process to be derived.
The intensity of the incident light was measured by using Aberchrome 999P in toluene as an actinometer. Heller, EPA Newslett., 29:49-60 (1987). This parameter was used to calculate the quantum yields of NATA photooxidation sensitized by the different porphyrins.

[7] = tested on: E. coli cells; test: Decrease of cell survival (colony counting) after white-light irradiation; format: cell-based, Escherichia coli; settings: for DECREASE OF SURVIVAL (log): 5 min dark incubation, 15 min white light (150 mW/cm^2)
Experimental: as §5, §1, §2, §3

[8] = Fluorescence quantum yields; format: physicochemical; settings: for ΦF (PBS), fluorescence quantum yield: in PBS; for ΦF (SDS), fluorescence quantum yield: in aqueous 2% SDS
Experimental: Ground-state absorption spectra of the porphyrins (ca. 5 μM in phosphate buffered saline (PBS, pH=7.4) were recorded with a Lambda 5 Perkin-Elmer spectrophotometer. Fluorescence spectra, corrected for the instrumental response, were recorded with a Perkin-Elmer (model LS) or a Spex (Fluorolog F112) spectrofluorimeter. Fluorescence quantum yields ((IF) of the porphyrin derivatives in PBS and in water containing 2% sodium dodecylsulfate (a detergent, hereinafter “SDS”) were determined by measuring the area of the emission spectrum (600-800 nm range, excitation at 560 nm) and using tetra-n-propylporphycene in toluene as a reference (ΦF=0.38). Braslavsky et al, J. Photochem. Photobiol. B: Biol., 40:191-198 (1997). In all cases, the absorbance of the sample and the reference solution were kept below 0.1 at the excitation wavelength to minimize inner filter effects.

[9] = tested on: S. aureus cells; test: Dark toxicity of porphyrins on bacteria cells; format: cell-based, Staphylococcus aureus; settings: 10 μM, 5 min incubation in the dark
Experimental: as §1, §2, §3

[10] = Fluorescence decay times (phase-shift method); format: physicochemical; settings: ca. 5 μM, air-equilibrated buffer pH 7.4, λexc = 420 nm, λem > 600 nm; for A1, relative weight of fast component: dihydrochloride salt
Experimental: Fluorescence decay times of the porphyrin samples were measured by means of a Spex Fluorolog-τ2 spectrofluorimeter based on the phase-shift method. The frequency response curves (phase-shift and demodulation ratio vs. frequency) were globally analyzed.

[11] = Table 5: 0.5 μM, 5 min incubation, 5 min white light (150 mW/cm^2)
[12] = 0.5 μM, incubated 5 min, white light 5 min
[13] = 0.5 μM, incubated 5 min, white light 10 min

| Molecule | Growth inhibition (%) S. aureus [2, 11] [%] | λmax of transient spectrum [3] [nm] | λmin of transient spectrum [3] [nm] | φ×ε920 [3] [M⁻¹ cm⁻¹] | τ^N2, triplet lifetime [3] [μs] | τ^air, triplet lifetime [3] [μs] | φT, triplet quantum yield [3] | Growth inhibition (%) E. coli [4, 12] [%] | Growth inhibition (%) E. coli [4, 11] [%] | concentration photoinducing significant bacteriostatic and bactericidal action [4] | association with S. aureus compared with E. coli [5] | ΦSDS × 10^3, quantum yield for photo-oxidation of NATA [6] | ΦPBS × 10^3, quantum yield for photo-oxidation of NATA [6] | DECREASE OF SURVIVAL (log) ([7]; 1 μM porphyrin) | ΦF (PBS), fluorescence quantum yield [8] | ΦF (SDS), fluorescence quantum yield [8] | A2, relative weight of slow component [10] [%] | τ1, fluorescence decay time of fast component [10] [ns] | τ2, fluorescence decay time of slow component [10] [ns] | A1, relative weight of fast component [10] [%] | other results |
| --- | --- | --- | --- | --- | --- | --- | --- | --- | --- | --- | --- | --- | --- | --- | --- | --- | --- | --- | --- | --- | --- |
| 5-(4-N-hexylpyridyl)-10,15,20-tris(4-N-methylpyridyl)-21H,23H-porphine tetrachloride dihydrochloride salt [Porphyrin C6] | 47 | 480 | 425 | 6217 | 71 | 16 | 0.48 | 4.8 | 5 | 10 µM | almost two-fold larger | 0.68 ± 0.14 | 0.59 ± 0.05 | +0.05 log | 0.018 | 0.029 | 94 | 0.9 | 5.1 | 6 | inhibition of bacterial cell growth in the dark [1]: barely detectable inhibition; Growth inhibition (%) E. coli ([4]; 0.5 μM, incubated 5 min, white light 30 min): 15.5%; Growth inhibition (%) E. coli ([4]; 10 μM, incubated 5 min, white light 5 min): 98.7%; Growth inhibition (%) E. coli ([4]; 10 μM, incubated 5 min, white light 10 min): 100%; Growth inhibition (%) E. coli ([4]; Table 5: 10 μM, 5 min incubation, 5 min white light (150 mW/cm^2)): 99%; DECREASE OF SURVIVAL (log) ([7]; 10 μM porphyrin): −4.23 ± 0.54 log; inhibition of bacterial cell growth in the dark [9]: barely detectable inhibition |
| CCCCCCCCCC[n+]1ccc(-c2c3nc(c(-c4cc[n+](C)cc4)c4ccc([nH]4)c(-c4cc[n+](C)cc4)c4nc(c(-c5cc[n+](C)cc5)c5ccc2[nH]5)C=C4)C=C3)cc1.Cl.Cl.[Cl-].[Cl-].[Cl-].[Cl-] [Porphyrin C10, 5-(4-N-decylpyridyl)-10,15,20-tris(4-N-methylpyridyl)-21H,23H-porphine tetrachloride dihydrochloride salt] | 74 | 490 | 420 | 10214 | 67 | 20 | 0.49 | 46.3 | 46 | ten-fold lower concentration | almost two-fold larger | 0.64 ± 0.26 | 0.59 ± 0.05 | −4.32 ± 0.34 log | 0.015 | 0.026 | 94 | 1.1 | 5.2 | 6 | Growth inhibition (%) S. aureus [2, 12]: 73.9%; Growth inhibition (%) S. aureus [2, 13]: 87.9%; Growth inhibition (%) E. coli [4, 13]: 92%; Growth inhibition (%) E. coli ([4]; 1 μM, incubated 5 min, white light 5 min): 96.1%; Growth inhibition (%) E. coli ([4]; 1 μM, incubated 5 min, white light 10 min): 100%; drop in survival of E. coli cells ([7]; 1 μM porphyrin, 15 min irradiation): 4 log |

Source: patent publication US6573258B2, “Photodynamic porphyrin antimicrobial agents” (Frontier Scientific, Inc., priority 2000, dated 2003)
